Where two headings read alike, the source gives them in different places.
How the values were obtained:
ZIKV strain R116265 = experiment: Plaque reduction inhibition assay, ZIKV R116265 in Vero E6 cells; type: cell-based; conditions: Zika virus, Vero C1008
[1] = biological target: T1, ZIKV envelope protein domain III (EDIII) protein (Zika virus, UniProt A0A024B7W1); type: binding
T1 construct: E residues 298–409 fused with a C-terminal human Fc; made in house

ZIKV strain PAN2016 [2] = experiment: Plaque reduction inhibition assay, ZIKV PAN2016 in Vero E6 cells; type: cell-based; conditions: Zika virus, Vero C1008, Vero E6 cells; for IC50: plaque reduction, read-out: IC50 PAN2016
[3] = test system: ZIKV rhesus macaque strain MR 766; experiment: Plaque reduction inhibition assay, ZIKV MR 766 in Vero E6 cells; type: cell-based; conditions: Zika virus, Vero C1008, in Macaca mulatta; plaque reduction, Vero E6 cells; read-out: IC50 MR 766
ZIKV strain PRVABC59 [4] = experiment: Plaque reduction inhibition assay, ZIKV PRVABC59 in Vero E6 cells; type: cell-based; conditions: Zika virus, Vero C1008; plaque reduction, Vero E6 cells
ZIKV strain PAN2015 = experiment: Plaque reduction inhibition assay, ZIKV PAN2015 in Vero E6 cells; type: cell-based; conditions: Zika virus, Vero C1008
in vitro [5] = conditions: African green monkey
[6] = biological target: ZIKV full-length E protein (Zika virus, UniProt A0A024B7W1); type: binding; conditions: ELISA
ZIKV strain FLR [7] = type: cell-based, Zika virus (ZIKV); conditions: ZIKV FLR; for IC50: Zika virus, Vero C1008, Vero E6, natural product without combination, read-out: IC50 Alone
ZIKV strain PRVABC59 [8] = type: cell-based, Zika virus (ZIKV); conditions: for IC50: Zika virus, Vero C1008, ZIKV PRVABC59, Vero E6, natural product without combination, read-out: IC50 Alone
[9] = test system: ZIKV mosquito strain MEX 2–81; experiment: Plaque reduction inhibition assay, ZIKV MEX 2–81 in Vero E6 cells; type: cell-based; conditions: Zika virus, Vero C1008; plaque reduction, Vero E6 cells; read-out: IC50 MEX 2–81
in vitro [10] = conditions: African green monkey; remark: listed apart in the source
ZIKV strain IbH 30656 = experiment: Plaque reduction inhibition assay, ZIKV IbH 30656 in Vero E6 cells; type: cell-based; conditions: Zika virus, Vero C1008; plaque reduction, Vero E6 cells; read-out: IC50 IbH 30656
ZIKV strain FLR [11] = experiment: Plaque reduction inhibition assay, ZIKV FLR in Vero E6 cells; type: cell-based; conditions: Zika virus, Vero C1008; plaque reduction, Vero E6 cells; read-out: IC50 FLR
ZIKV strain PLCal_ZV = experiment: Plaque reduction inhibition assay, ZIKV PLCal_ZV in Vero E6 cells; type: cell-based; conditions: Zika virus, Vero C1008; plaque reduction, Vero E6 cells; read-out: IC50 PLCal_ZV
ZIKV strain PAN2016 [12] = type: cell-based, Zika virus (ZIKV); conditions: for IC50: Zika virus, Vero C1008, ZIKV PAN2016, Vero E6, natural product without combination, read-out: IC50 Alone
Vero E6 cells [13] = test system: Vero E6 cells
in vitro [14] = conditions: rhesus monkey
ZIKV (PAN2016) = experiment: Time-of-addition experiment, ZIKV PAN2016 in Vero E6 cells; type: cell-based, Zika virus (ZIKV); conditions: for inhibition at 30 µM: Zika virus, Vero C1008, 1 h
ZIKV strain R103451 = experiment: Plaque reduction inhibition assay, ZIKV R103451 in Vero E6 cells; type: cell-based; conditions: Zika virus, Vero C1008; plaque reduction, Vero E6 cells; read-out: IC50 R103451
DENV-1-V1792 = experiment: Plaque reduction inhibition assay, DENV-1 in LLC-MK2 cells; type: cell-based; conditions: Dengue virus, DENV1
DENV-3-V1043 = experiment: Plaque reduction inhibition assay, DENV-3 in LLC-MK2 cells; type: cell-based; conditions: Dengue virus, DENV3
DENV-4-PR 06-65-740 = experiment: Plaque reduction inhibition assay, DENV-4 in LLC-MK2 cells; type: cell-based; conditions: Dengue virus, DENV4
DENV-2-V594 = experiment: Plaque reduction inhibition assay, DENV-2 in LLC-MK2 cells; type: cell-based; conditions: Dengue virus, DENV2
Vero E6 cells [15] = experiment: Combinatorial cytotoxicity of gossypol with other natural products, CCK8; conditions: Vero E6; (CC50 alone)/(CC50 in the mixture)—1

T1 sequence (A0A024B7W1 588-699): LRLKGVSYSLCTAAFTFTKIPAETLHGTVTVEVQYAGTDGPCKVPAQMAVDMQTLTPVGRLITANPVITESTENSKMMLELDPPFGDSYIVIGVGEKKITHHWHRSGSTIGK
ZIKV full-length E protein, sequence (A0A024B7W1 291-794): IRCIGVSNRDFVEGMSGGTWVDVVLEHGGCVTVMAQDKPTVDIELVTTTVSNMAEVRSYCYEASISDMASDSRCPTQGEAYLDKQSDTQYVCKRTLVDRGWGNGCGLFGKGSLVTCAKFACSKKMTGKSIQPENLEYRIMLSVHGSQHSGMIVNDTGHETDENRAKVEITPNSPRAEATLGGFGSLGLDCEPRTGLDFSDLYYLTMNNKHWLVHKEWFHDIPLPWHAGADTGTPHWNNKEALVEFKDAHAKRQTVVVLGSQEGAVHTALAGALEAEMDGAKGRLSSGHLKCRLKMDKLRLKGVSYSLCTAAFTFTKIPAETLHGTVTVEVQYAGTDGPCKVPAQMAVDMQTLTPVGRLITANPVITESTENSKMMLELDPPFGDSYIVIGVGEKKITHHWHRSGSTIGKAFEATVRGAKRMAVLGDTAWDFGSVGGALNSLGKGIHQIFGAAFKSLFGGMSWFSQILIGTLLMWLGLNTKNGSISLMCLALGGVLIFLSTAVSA

CC(C)C[C@H](NC(=O)[C@H](Cc1ccccc1)NC(=O)c1cnccn1)B(O)O [Bortezomib, bortezomib, reference compound]
IC50 (ZIKV strain R116265): 8.94 ± 0.1 µM
binding to ZIKV EDIII protein (in words) ([1]; ELISA): did not bind
IC50 (ZIKV strain PAN2016 [2]): 9.75 ± 0.03 µM
IC50 [3]: 9.51 ± 0.26 µM
IC50 (ZIKV strain PRVABC59 [4]): 11.7 ± 0.82 µM
IC50 (ZIKV strain PAN2015): 9.88 ± 0.12 µM
CC50 at 3 days (in vitro [5]): 17.77 ± 0.17 µM
binding to ZIKV full-length E protein (in words) [6]: did not bind
IC50 (ZIKV strain FLR [7]): 9.7 ± 0.76 µM
IC50 (ZIKV strain PRVABC59 [8]): 12.17 ± 0.07 µM
IC50 [9]: 7.67 ± 0.31 µM
CC50 at 3 days (in vitro [10]): 17 ± 0.2 µM
IC50 (ZIKV strain IbH 30656): 9.35 ± 0.23 µM
IC50 (ZIKV strain FLR [11]): 9.62 ± 0.59 µM
IC50 (ZIKV strain PLCal_ZV): 31 ± 0.71 µM
IC50 (ZIKV strain PAN2016 [12]): 10.65 ± 0.01 µM

C[C@H]1[C@H]2CC[C@H]3[C@@H]4CC=C5C[C@@H](N(C)C)CC[C@]5(C)[C@H]4CC[C@]23CN1C [Conessine, conessine]
IC50 (ZIKV strain R116265): 7.18 ± 0.13 µM
cytotoxicity in Vero E6 cells observed under a microscope (Vero E6 cells [13]): no obvious cytotoxicity
binding to ZIKV EDIII protein (in words) [1]: did not bind
IC90 (ZIKV strain PAN2016 [2]; 90% plaque reduction, read-out: IC90 against ZIKV PAN2016 strain): ~31.8 µM
IC50 (ZIKV strain PAN2016 [2]): 9.75 ± 0.26 µM
IC50 [3]: 7.44 ± 0.11 µM
CC50 at 3 days (in vitro [14]): 303 ± 13.4 µM
IC50 (ZIKV strain PRVABC59 [4]): 9.08 ± 0.33 µM
inhibition at 30 µM (ZIKV (PAN2016); read-out: inhibition of ZIKV infection, step d: cotreatment at 37 °C): 80 to 96%
inhibition at 30 µM (ZIKV (PAN2016); read-out: inhibition of ZIKV infection, step e: penetration (membrane fusion)): 80 to 96%
inhibition at 30 µM (ZIKV (PAN2016); read-out: inhibition of ZIKV infection, step f: postentry stage): 80 to 96%
inhibition of ZIKV infection, step c: cotreatment at 4 °C (attachment) (ZIKV (PAN2016); cells, ZIKV and natural product 4 °C 1 h, gossypol 15 µM, curcumin 30 µM, digitonin 7.5 µM, conessine 30 µM): very low to no effect
inhibition of ZIKV infection, step a: pretreatment of ZIKV (ZIKV (PAN2016); natural product with ZIKV 37 °C 1 h before cells, gossypol 15 µM, curcumin 30 µM, digitonin 7.5 µM, conessine 30 µM): very low to no effect
IC50 (ZIKV strain PAN2015): 7.98 ± 0.29 µM
IC50 (ZIKV strain R103451): 11.6 ± 0.33 µM
CC50 at 3 days (in vitro [5]): 314.6 ± 2.32 µM
IC50 (DENV-1-V1792): 7.09 ± 0.08 µM
IC50 (DENV-3-V1043): 7.41 ± 0.04 µM
binding to ZIKV full-length E protein (in words) [6]: did not bind
Fold of Enhancement (natural product with gossypol) (ZIKV strain FLR [7]; (IC50 alone)/(IC50 in the mixture)—1): 1.13
CI (combination index) of gossypol with the named natural product (ZIKV strain FLR [7]; CI < 1 synergy): 0.85
IC50 (ZIKV strain FLR [7]): 10.1 ± 0.45 µM
IC50 (DENV-4-PR 06-65-740): 7.27 ± 0.31 µM
Fold of Enhancement (natural product with gossypol) (ZIKV strain PRVABC59 [8]; ZIKV PRVABC59, (IC50 alone)/(IC50 in the mixture)—1): 6.29
CI (combination index) of gossypol with the named natural product (ZIKV strain PRVABC59 [8]; ZIKV PRVABC59, CI < 1 synergy): 0.28
IC50 (ZIKV strain PRVABC59 [8]): 9.4 ± 0.21 µM
IC50 [9]: 10.94 ± 0.06 µM
CC50 at 3 days (in vitro [10]): 323.71 ± 0.25 µM
IC50 (ZIKV strain IbH 30656): 10.2 ± 0.41 µM
IC50 (ZIKV strain FLR [11]): 9.65 ± 0.58 µM
IC50 (DENV-2-V594): 6.61 ± 0.6 µM
Fold of Enhancement of cytotoxicity (natural product with gossypol) (Vero E6 cells [15]): ~5.78
IC50 (ZIKV strain PLCal_ZV): 8.11 ± 0.37 µM
Fold of Enhancement (natural product with gossypol) (ZIKV strain PAN2016 [12]; ZIKV PAN2016, (IC50 alone)/(IC50 in the mixture)—1): 3.44
CI (combination index) of gossypol with the named natural product (ZIKV strain PAN2016 [12]; ZIKV PAN2016, CI < 1 synergy): 0.44
IC50 (ZIKV strain PAN2016 [12]): 10 ± 0.25 µM

Source: paper PMC6893700 (Viruses, 2019)
